Experimental data as given in US20230047102A1, “PHARMACEUTICAL COMPOSITIONS COMPRISING N-[1-(5-CYANO-PYRIDIN-2-YLMETHYL)-1H-PYRAZOL-3-YL]-2-[4-(1-TRIFLUOROMETHYL-CYCLOPROPYL)-PHENYL]-ACETAMIDE” (Idorsia Pharmaceuticals Ltd, priority 2019, published 2023).

Assays:
[1] = Steady-state exposure with 60 mg once-daily dose in adults; assay type: in vivo, human; conditions: 60 mg once-daily dose at steady state in adults; 95% confidence interval 11.2, 16.7
Procedure: The starting dose of study treatment for the sentinel cohort (dose level 1) will be based on body weight categories (based on subjects' body weight on Day 1), as detailed in the table below. This study intends to target exposures equivalent to those observed with a 60 mg once-daily dose at steady state in adults (area under the concentration versus time curve during 1 dosing interval [AUCT] of 13.7 μgxh/mL [95% confidence interval (CD: 11.2, 16.7 μgxh/m14. Based on the exposure data obtained from the sentinel cohort, the doses may be adjusted if required to achieve the targeted exposure in the main cohort.

[2] = subject to certain variations of this value found in the literature; cited from earlier work

Compound	area under the concentration versus time curve during 1 dosing interval [AUCT] [1]	hydrophilic-lipophilic balance (HLB) value [2]
N#Cc1ccc(Cn2ccc(NC(=O)Cc3ccc(C4(C(F)(F)F)CC4)cc3)n2)nc1 [NBI-827104, N-[1-(5-cyano-pyridin-2-ylmethyl)-1H-pyrazol-3-yl]-2-[4-(1-trifluoromethyl-cyclopropyl)-phenyl]-acetamide]	13.7 μgxh/mL	–
CCCCCCCCCCCCOS(=O)(=O)[O-].[Na+] [SLS, Sodium lauryl sulfate]	–	about 40
Poloxamer 188	–	about 29
